Values after ≈ are worked out from the molar mass of the structure shown. Where two headings read alike, the source gives them in different places.
How the values were obtained:
[1] = tested on: methicillin-resistant Staphylococcus aureus (MRSA 01, MRSA 15, MRSA 16); experiment: Resistance mutation frequency evaluation, Example 3; format: cell-based; conditions: at MIC×1; all tested strains (MRSA 01, MRSA 15, MRSA 16); below the detection limit
S. aureus = experiment: MIC assay according to CLSI criteria, Example 2, S. aureus strains; format: cell-based, Staphylococcus aureus; conditions: for MIC: Staphylococcus aureus, read-out: MIC
Summary of the method: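 Broth microdilution per CLSI in cation-adjusted Mueller Hinton broth, ~5×10^5 exponential-phase cells per well, aerobic at 37° C for 18 hours; OD600 read at end.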

O=C(Nc1ccc([N+](=O)[O-])cc1Cl)c1cc(Cl)ccc1O [Niclosamide, niclosamide] was tested. Which mutational frequency [1] did it give?
Its mutational frequency is < 4.10^−9.

What about the “MIC distribution: percentage of Staphylococcus aureus strains” value (S. aureus; MIC 0.5 μg/ml, 205 strains) of the same molecule?
The value was 27% (55/205).

What about the MIC50 (S. aureus; Staphylococcus aureus strains) of the same molecule?
The MIC50 was 0.25 µg/mL (≈ 0.764 µM).

And the MIC90 (S. aureus; Staphylococcus aureus strains)?
The MIC90 was 0.5 µg/mL (≈ 1.53 µM).

And the MIC (S. aureus; MRSA, strain MRSA 01)?
The MIC was 0.25 µg/mL (≈ 0.764 µM).

And the MIC (S. aureus; MRSA, strain MRSA 02)?
Its MIC is 0.25 µg/mL (≈ 0.764 µM).

What about the MIC (S. aureus; MRSA, strain MRSA 03) of the same molecule?
Its MIC is 0.25 µg/mL (≈ 0.764 µM).

And the MIC (S. aureus; MRSA, strain MRSA 04)?
The MIC was 0.25 µg/mL (≈ 0.764 µM).

And the MIC (S. aureus; MRSA, strain MRSA 05)?
The MIC was 0.25 µg/mL (≈ 0.764 µM).

What about the MIC (S. aureus; MRSA, strain MRSA 06) of the same molecule?
The MIC was 0.25 µg/mL (≈ 0.764 µM).

What about the MIC (S. aureus; MRSA, strain MRSA 08) of the same molecule?
The MIC was 0.25 µg/mL (≈ 0.764 µM).

And the MIC (S. aureus; MRSA, strain MRSA 10)?
The MIC was 0.25 µg/mL (≈ 0.764 µM).

And the MIC (S. aureus; MRSA, strain MRSA 11)?
Its MIC is 0.25 µg/mL (≈ 0.764 µM).

And the MIC (S. aureus; MRSA, strain MRSA 12)?
The MIC was 0.5 µg/mL (≈ 1.53 µM).

And the MIC (S. aureus; MRSA, strain MRSA 13)?
Its MIC is 0.25 µg/mL (≈ 0.764 µM).

What about the MIC (S. aureus; MRSA, strain MRSA 14) of the same molecule?
Its MIC is 0.25 µg/mL (≈ 0.764 µM).

And the MIC (S. aureus; MRSA, strain MRSA 15)?
Its MIC is 0.25 µg/mL (≈ 0.764 µM).

What about the MIC (S. aureus; MRSA, strain MRSA 16) of the same molecule?
Its MIC is 0.25 µg/mL (≈ 0.764 µM).

What about the MIC (S. aureus; MRSA, strain MRSA 17) of the same molecule?
Its MIC is 0.25 µg/mL (≈ 0.764 µM).

What about the MIC (S. aureus; MRSA, strain MRSA 18) of the same molecule?
The MIC was 0.25 µg/mL (≈ 0.764 µM).

What about the MIC (S. aureus; MRSA, strain MRSA 19) of the same molecule?
Its MIC is 0.25 µg/mL (≈ 0.764 µM).

And the MIC (S. aureus; MRSA, strain MRSA 20)?
Its MIC is 0.25 µg/mL (≈ 0.764 µM).

And the MIC (S. aureus; MRSA, strain MRSA 21)?
The MIC was 0.25 µg/mL (≈ 0.764 µM).

And the MIC (S. aureus; MRSA, strain MRSA 22)?
The MIC was 0.25 µg/mL (≈ 0.764 µM).

And the MIC (S. aureus; MRSA, strain MRSA 23)?
The MIC was 0.25 µg/mL (≈ 0.764 µM).

What about the MIC (S. aureus; MRSA, strain MRSA 24) of the same molecule?
The MIC was 0.25 µg/mL (≈ 0.764 µM).

What about the MIC (S. aureus; MRSA, strain MRSA 25) of the same molecule?
Its MIC is 0.25 µg/mL (≈ 0.764 µM).

What about the MIC (S. aureus; MRSA, strain MRSA 26) of the same molecule?
The MIC was 0.5 µg/mL (≈ 1.53 µM).

And the MIC (S. aureus; MRSA, strain MRSA 27)?
Its MIC is 0.5 µg/mL (≈ 1.53 µM).

What about the MIC (S. aureus; MRSA, strain MRSA 28) of the same molecule?
The MIC was 0.25 µg/mL (≈ 0.764 µM).

And the MIC (S. aureus; MRSA, strain MRSA 29)?
Its MIC is 0.5 µg/mL (≈ 1.53 µM).

What about the MIC (S. aureus; MRSA, strain MRSA 30) of the same molecule?
Its MIC is 0.25 µg/mL (≈ 0.764 µM).

What about the MIC (S. aureus; MRSA, strain MRSA 31) of the same molecule?
The MIC was 0.25 µg/mL (≈ 0.764 µM).

And the MIC (S. aureus; MRSA, strain MRSA 32)?
The MIC was 0.25 µg/mL (≈ 0.764 µM).

What about the MIC (S. aureus; MRSA, strain MRSA 33) of the same molecule?
The MIC was 0.25 µg/mL (≈ 0.764 µM).

And the MIC (S. aureus; MRSA, strain MRSA 34)?
Its MIC is 0.25 µg/mL (≈ 0.764 µM).

And the MIC (S. aureus; MRSA, strain MRSA 35)?
The MIC was 0.25 µg/mL (≈ 0.764 µM).

What about the MIC (S. aureus; MRSA, strain MRSA 70) of the same molecule?
Its MIC is 0.125 µg/mL (≈ 0.382 µM).

What about the MIC (S. aureus; MRSA, strain MRSA 73) of the same molecule?
The MIC was 0.5 µg/mL (≈ 1.53 µM).

And the MIC (S. aureus; MRSA, strain MRSA 75)?
Its MIC is 0.5 µg/mL (≈ 1.53 µM).

And the MIC (S. aureus; MRSA, strain MRSA 78)?
Its MIC is 0.5 µg/mL (≈ 1.53 µM).

What about the MIC (S. aureus; MRSA, strain MRSA 80) of the same molecule?
The MIC was 0.5 µg/mL (≈ 1.53 µM).

And the MIC (S. aureus; MRSA, strain MRSA 81)?
Its MIC is 0.5 µg/mL (≈ 1.53 µM).

And the MIC (S. aureus; MRSA, strain MRSA 83)?
The MIC was 0.5 µg/mL (≈ 1.53 µM).

And the MIC (S. aureus; MRSA, strain MRSA 88)?
The MIC was 0.25 µg/mL (≈ 0.764 µM).

And the MIC (S. aureus; MRSA, strain MRSA 90)?
The MIC was 0.5 µg/mL (≈ 1.53 µM).

And the MIC (S. aureus; MRSA, strain MRSA 91)?
Its MIC is 0.25 µg/mL (≈ 0.764 µM).

What about the MIC (S. aureus; MRSA, strain MRSA 92) of the same molecule?
The MIC was 0.25 µg/mL (≈ 0.764 µM).

What about the MIC (S. aureus; MRSA, strain MRSA 93) of the same molecule?
The MIC was 0.25 µg/mL (≈ 0.764 µM).

And the MIC (S. aureus; MRSA, strain MRSA 94)?
The MIC was 0.25 µg/mL (≈ 0.764 µM).

What about the MIC (S. aureus; MRSA, strain MRSA 95) of the same molecule?
Its MIC is 0.25 µg/mL (≈ 0.764 µM).

And the MIC (S. aureus; MRSA, strain MRSA 96)?
Its MIC is 0.25 µg/mL (≈ 0.764 µM).

And the MIC (S. aureus; MRSA, strain MRSA 97)?
The MIC was 0.25 µg/mL (≈ 0.764 µM).

And the MIC (S. aureus; MRSA, strain MRSA 98)?
Its MIC is 0.5 µg/mL (≈ 1.53 µM).

What about the MIC (S. aureus; MRSA, strain MRSA 99) of the same molecule?
The MIC was 0.25 µg/mL (≈ 0.764 µM).

What about the MIC (S. aureus; MRSA, strain MRSA 100) of the same molecule?
Its MIC is 0.25 µg/mL (≈ 0.764 µM).

What about the MIC (S. aureus; MRSA, strain MRSA 101) of the same molecule?
Its MIC is 0.5 µg/mL (≈ 1.53 µM).

And the MIC (S. aureus; MRSA, strain MRSA 102)?
Its MIC is 0.25 µg/mL (≈ 0.764 µM).

And the MIC (S. aureus; MRSA, strain MRSA 103)?
The MIC was 0.25 µg/mL (≈ 0.764 µM).

And the MIC (S. aureus; MRSA, strain MRSA 104)?
The MIC was 0.5 µg/mL (≈ 1.53 µM).

And the MIC (S. aureus; MRSA, strain MRSA 105)?
The MIC was 0.25 µg/mL (≈ 0.764 µM).

What about the MIC (S. aureus; MRSA, strain MRSA 106) of the same molecule?
Its MIC is 0.25 µg/mL (≈ 0.764 µM).

What about the MIC (S. aureus; MRSA, strain MRSA 107) of the same molecule?
The MIC was 0.25 µg/mL (≈ 0.764 µM).

What about the MIC (S. aureus; MRSA, strain MRSA 108) of the same molecule?
Its MIC is 0.25 µg/mL (≈ 0.764 µM).

What about the MIC (S. aureus; MRSA, strain MRSA 109) of the same molecule?
The MIC was 0.25 µg/mL (≈ 0.764 µM).

And the MIC (S. aureus; MRSA, strain MRSA 110)?
The MIC was 0.25 µg/mL (≈ 0.764 µM).

And the MIC (S. aureus; MRSA, strain MRSA 111)?
The MIC was 0.5 µg/mL (≈ 1.53 µM).

And the MIC (S. aureus; MRSA, strain MRSA 112)?
The MIC was 0.25 µg/mL (≈ 0.764 µM).

And the MIC (S. aureus; MRSA, strain MRSA 113)?
The MIC was 0.25 µg/mL (≈ 0.764 µM).

What about the MIC (S. aureus; MSSA, strain MSSA 01) of the same molecule?
The MIC was 0.5 µg/mL (≈ 1.53 µM).

What about the MIC (S. aureus; MSSA, strain MSSA 02) of the same molecule?
Its MIC is 0.25 µg/mL (≈ 0.764 µM).

And the MIC (S. aureus; NEWMAN, strain Newman)?
The MIC was 0.25 µg/mL (≈ 0.764 µM).

From patent US12036312B2, “Non-aqueous topical compositions comprising a halogenated salicylanilide” (priority 2016, dated 2024)
